Holding throughout (assay type): in vivo
The test system of test [1] is Cyclocephala borealis grubs. Nature of the test: Large field plot trial 5, golf course fairway. As to conditions: Trial 5, Mansfield, Ohio, autumn 2001; nematodes 2.5 × 10^9 IJ/ha, imidacloprid 0.33 kg, trichlorfon 9.0 kg; applied September 11, data October 9. The protocol:
(§1) Four field plot trials (Trials 5-8) were conducted on natural populations of P. japonica and C. borealis, or both species if they occurred together. Trial 5 was conducted on a naturally occurring mixed population of P. japonica and C. borealis grubs on a fairway at Wooldridge Woods Golf Course in Mansfield, Ohio in autumn 2001. Plots measuring 3-m by 3-m and separated by 0.9-m alleyways were arranged in a complete randomized block design with five replications/treatment. All treatments including imidacloprid (Merit 75WP) and trichlorfon (Dylox 6.2G) were applied on the morning of September 11 as curative treatments. Liquid applications were made with a sprinkling can at a volume of 8 liters/plot. Nematodes were applied at 2.5×10^9 IJ/ha. The trichlorfon granules were applied using a Gandy Drop Spreader (Gandy Company, Owatonna, Minn.). Grub population consisted of 30% second and 70% third instar P. japonica, and 100% third instar C. borealis. Turf consisted of 70% Kentucky bluegrass and 30% annual bluegrass, topography level, height 2.5 cm, and had no thatch.
(§2) Efficacy data from all field trials were obtained from six, 18×18×7 cm deep samples removed from the middle of each plot. Soil from each square was lifted with a spade and placed in a plastic dishpan and the number of live grubs counted by hand sifting the soil and turf.
(§3) Data on the total numbers of surviving grubs from each plot were subjected to the analysis of variance following the log10 […] transformation using Statsoft (1999) for each trial and means were separated by Tukey's mean separation test at P=0.05. In cylinder studies, the number of surviving grubs from all cylinders were pooled by plot. […]. For predictability analysis, all data on the mean percentage control of all white grubs were pooled by treatment and subjected to the analysis of variance using Statsoft (1999) following arcsine transformation. Only trichlorfon was included in these analyses as it is applied as a curative treatment just like the nematodes.

In test [2] the test system is Popillia japonica grubs. The test can be described thus: Large field plot trial 5, golf course fairway. As to conditions: Trial 5, Mansfield, Ohio, autumn 2001, nematodes 2.5 × 10^9 IJ/ha, imidacloprid 0.33 kg, trichlorfon 9.0 kg, applied September 11, data October 9. The protocol:
as §1, §2, §3

Test [3] has as its system second instar Popillia japonica grub populations. The test can be described thus: Microplot (cylinder) field trials, Trials 1-4. As to conditions: Ohio. The procedure:
Microplot trials consisted of field plots in which PVC cylinders, 20 cm inside diameter, were inserted to a depth of about 7 cm. Four microplot trials (Trials 14) were conducted on second instar P. japonica grubs.
P. japonica adults were caged in the PVC cylinders to obtain grub populations following the methods described by Klein et al. (2000). Adult beetles were lured to Trece Catch Can traps (Trece Inc., Adair, Okla.) using a feeding lure containing PEG (phenol ethyl propionate, eugenol, and geraniol) and collected. Twice, at 1-week intervals, 30 adults consisting of approximately 50% females (measured volumetrically) were placed in each cylinder and covered with a nylon 20 mesh screen to induce egg laying within the cylinder area. The ovipositing beetles were fed fresh apple slices dusted with Brewer's yeast twice a week. Fourteen days after the initial caging, the nylon screens were removed. The developing grub population was monitored until the larvae reached the second instar, when all curative treatments were applied.
Trials 1, 2, and 4 were located at the Ohio Agricultural Research and Development Center, Wooster, Ohio whereas trial 3 was located at the TrueGreen Technical Center in Delaware, Ohio. Trials 1, 2, and 4 were set up on 1.5-m by 0.9-m plots, separated by 0.9 m alleyways, arranged in a complete randomized block design with four replications/treatment. For these trials, turf consisted of 70% Kentucky bluegrass and 30% dicot and monocot weed species, with level topography and no thatch was observed. Soil was a silt loam, with 2.8% OM, pH 6.0, 11.4 CEC. Trial 3 was conducted on Kentucky bluegrass lawn using 2.44 by 2.44 m plots arranged in a completely randomized block design with 5 replications/treatment. Soil was also a silt loam. Supplemental irrigation was applied prior to treatments to optimize beetle egg hatch and maintain actively growing turfgrass at both locations.
The nematodes were applied in 100 ml of water at 2.5×10^9 IJs/ha as a curative treatment to each cylinder except for trial 3, in which they were applied at 5.0×10^9 IJs/ha in 7.6 liters of water per plot with a hand held sprinkling can. Chemical insecticides were included for comparison in three of the trials. In trial 1, halofenozide was applied at 1.61 kg active ingredient (a.i.)/ha on Jul. 13, 2000 as a preventive treatment prior to P. japonica egg laying with a CO2 sprayer and Teejet 8015 nozzles at 2.81 kg/cm^2 (40 psi) delivering 1630 liters/ha. In trial 2, imidacloprid (Merit 75 WP) was applied at 0.33 kg a.i./ha on July 14 and trichlorfon granules (Dylox 6.2G) at 9.0 kg a.i./ha with a shaker on September 14. In trial 3, trichlorofon was applied as in trial 2. All plots received post-application irrigation (see Table 2).
as §2, §3

In test [4] the test system is white grubs, Popillia japonica and Cyclocephala borealis. The test can be described thus: Pooled analysis of field trials (irrigation plus rainfall, predictability). As to conditions: nematodes at 2.5×10^9 IJs/ha, trichlorfon curatively at standard rate; mean ± S.E.
Excerpt: as §3

Test [5] has as its system mixed populations of third instar Popillia japonica and Cyclocephala borealis grubs. The test can be described thus: Large field plot trials 6 and 7, Kentucky bluegrass lawn. As to conditions: Ohio, autumn 2001, nematodes 2.5 × 10^9 IJs/ha, applied September 14, data October 9. The procedure: Trials 6 and 7 were conducted on stands of Kentucky bluegrass naturally infested with mixed populations of mostly third instar P. japonica and C. borealis in autumn 2001. The 1.2 by 1.2-m plots were located at the TrueGreen Technical Center in Delaware, Ohio. The nematodes were applied at 2.5×10^9 IJs/ha in trial 6 and at 5.0×10^9 IJ/ha in trial 7 with a CO2 backpack sprayer with a 10 cm boom fitted with three 8005 LP flat fan nozzles at a volume of 813 liters/ha. Plots were arranged in a randomized complete block design with 5 replications/treatment for both trials.
as §2, §3

Where [6] appears, read: Trial 2, 2001 Wooster, nematodes 2.5 × 10^9 IJs/ha Sept 12, imidacloprid 0.34 kg July 14, trichlorfon 9.0 kg Sept 12, observed Oct 10.
The mark [7] stands for this setting: Trial 3, 2001 Columbus, nematodes 5.0 × 10^9 IJs/ha, trichlorfon 9.0 kg, applied Sept 14, observed Oct 9.
The mark [8] stands for this setting: Trial 6, Columbus, trichlorfon 9.0 kg/ha.
The mark [9] stands for this setting: Trial 7, Columbus, trichlorfon standard rate 9.0 kg.
[10] abbreviates: Trial 1, 2000 Wooster, nematodes 2.5 × 10^9 IJs/ha applied Sept 13, halofenozide 1.61 kg a.i./ha applied July 13, observed Oct 5.

SMILES strings stand for the structures.

Turning to `O=[N+]([O-])NC1=NCCN1Cc1ccc(Cl)nc1` [Imidacloprid], in test [1], the “C. borealis % control” value is given as 47% and the “C. borealis Mean grubs/plot” value is reported as 3.8 ab grubs/plot. Moreover, in test [2], the “P. japonica % Control” value was “no effect” and the “P. japonica Mean grubs/plot” value is listed as 17.8 a grubs/plot. Also, the “P. japonica % Control” value in test [2] (listed as IMIDACLOPRID (MERIT 75 WP)) is listed as 0%. Also, in test [3] (setting [6]), the “% Control” value is given as 98% and the Mean grubs/plot is listed as 0.3 d grubs/plot.
Consider `COP(=O)(OC)C(O)C(Cl)(Cl)Cl` (stereo not shown) [Trichlorfon], for which, in test [1], the “C. borealis % control” value amounted to 47% and the “C. borealis Mean grubs/plot” value was found to be 3.8 b grubs/plot. For the same molecule, in test [2], the “P. japonica % Control” value came out at 57% and the “P. japonica Mean grubs/plot” value was 7.6 c grubs/plot. The “overall percent white grub control, pooled data across all trials” value in test [4] is reported as 50.33±13.5%. In test [3] (setting [6]), the “% Control” value was 92% and the Mean grubs/plot was determined as 1.3 cd grubs/plot. In addition, in test [3] (setting [7]), the “% Control” value was found to be 29% and the Mean grubs/plot worked out at 6.4 ab grubs/plot. For the same molecule, in test [5] (setting [8]), the “% Control” value is 0% and the Mean grubs/plot amounted to 11.7 a grubs/plot. For the same molecule, in test [5] (setting [9]), the “% Control” value is given as 77% and the Mean grubs/plot worked out at 4.0 b grubs/plot.
Regarding `CC(C)(C)N(NC(=O)c1ccc(Cl)cc1)C(=O)c1ccccc1` [Halofenozide], in test [3] (setting [10]), the “% Control” value stood at 98% and the Mean grubs/plot worked out at 0.7 b grubs/plot.

These data come from US20050244387A1, “Entomopathogenic nematodes and methods of their use” (priority 2004, published 2005).
